Legend:
cortical explants = assay: Neurite outgrowth from cultured cortex of treated lesioned animals; assay type: cell-based, rat; details: cortex of lesioned rats treated in vivo; vehicle: did not grow
Protocol: When pieces of cortex from these RARβ agonist treated animals were cultured, neurite outgrowth was observed, in contrast to cortex from control lesioned animals.
(§1) Cerebellar neurons isolated from post-natal day 3 rat pups were cultured over monolayers of parental 3T3 cells in control media, or media supplemented with a recombinant MAG-Fc chimera (R&D Systems) used at a final concentration of 20 μg/mL MAG-Fc. The monolayers were established for 24 hours prior to addition of the neurons and the co-cultures were maintained for approximately 21 hours. Following careful fixation with 4% paraformaldehyde, the neurons were immuno-stained with a GAP-43 antibody (from Graham Wilkin, Imperial College), dilution of 1:500, and the mean length of the longest neurite per cell was measured for approximately 120-150 neurons as previously described (see, e.g., Williams et al., 2005). DRG and cortical explants were obtained from adult rats, they were cultured in cellogen as previously described (see, e.g., Corcoran and Maden, 1999). Three explants per treatment were used. Neurite outgrowth was assessed 3 days later by immunohistochemistry with NF200 (Sigma, dilution of 1:200). The average lengths of the neurites were measured using image pro plus software. Media consisted of DMEM-F12 (Invitrogen) containing N2 (Invitrogen) supplemented with glucose (33 mM) and glutamine (2 mM).

[1] = tested on: corticospinal tract (CST) of rats crushed at the C4 level; details: in vivo; Agudo et al., 2010; cited from earlier work
[2] = tested on: rats with severed and re-implanted sensory roots at the level of the left forelimb; assay: Sensory roots of four DRG severed and re-implanted into the spinal cord, sticky tape tests; assay type: in vivo; details: rat, after 5 weeks, 1 mg/kg three times a week
Protocol: In another example of nerve injury, the four sensory roots from each of four DRG at the level of the left forelimb were severed and re-implanted into the spinal cord.
The results are illustrated in Borthwick et al., 2016. […] Rats were treated with 1 mg/kg of the test compound or vehicle two days after lesion, and then three times a week for the period of the experiment. Error bars show SEM. ***P<0.001, students t test, n=3-4 rats for each treatment group. At weeks 3, 4, and 5, there was significant difference between the rats treated with RARβ agonist as compared to rats treated with other retinoid agonists and vehicle.

cerebellar neurons = assay: Neurite outgrowth assay, cerebellar neurons in the presence of myelin / MAG; assay type: cell-based, rat; details: cerebellar neurons grown in the presence of myelin
Protocol: as §1

[3] = tested on: corticospinal tract (CST) of rats crushed at the C4 level; assay: Corticospinal tract (CST) crush at C4 in rats, agonist applied to the lateral ventricle; assay type: in vivo; details: rat
Protocol: The results are illustrated in Borthwick et al., 2016.
All animal experiments were carried out under UK home office regulations. Dorsal column lesions were performed on adult male rats as previously described (see, e.g., Bradbury et al., 2002). […] The pumps were placed subcutaneously and connected to a brain infusion catheter (Alzet™), which was inserted into the lateral ventricle (Bregma coordinates: rostrocaudal: −0.8 mm, mediolateral: −1.5 mm and dorsoventral: −4.5 mm). […] The dose was based previous in vivo studies on activation of RARα and RARβ signalling in the adult rat brain (see, e.g., Goncalves et al., 2009). Animals which underwent behavioural studies and subsequent tracing (n=6 per treatment) were kept for six weeks before being sacrificed with a lethal injection of pentobarbital and transcardially perfused with 4% PFA. Dissected tissue (cervical and lumbar spinal cord) was processed for immunofluorescence.
Descendent corticospinal tract axons were anterogradely traced after the dorsal column crush was performed by injected BDA (10% in PBS, Mw10K from Molecular Probes) into the motor cortex as previously described (see, e.g., Yip et al., 2006). Six injections were done in the right cortex (0.5 μL of BDA/injection point). Animals (n=6 per treatment) were perfused and the spinal cord was transferred to PBS (plus 0.1% sodium azide) and embedded in gelatin (10%, 300 bloom; Sigma, Poole, UK). Gelatin blocks were hardened in 4% paraformaldehyde, and 40 μm free-floating serial transverse sections were cut on a vibratome (Leica, Nussloch, Germany) and collected in 24-well plates containing PBS (plus 0.1% sodium azide).
BDA was detected using the tyramide amplification kit (Perkin-Elmer) coupled with extra-avidin-FITC (Amersham Pharmacia Biotech, UK, 1:500). All BDA-labelled fibres observed within a 1-mm square grid were counted at measured intervals from 5 mm above to 5 mm below the lesion site by an experimenter, blinded to treatment.
CST neurons were labelled by retrograde tracing injecting 2 μL of 5% Fluorogold (FG, Molecular Probes) 2 mm deep into the cervical spinal cord (C3-C4) at a rate of 0.5 μL/minute (n=3 rats per group). In sham animals, FG was injected 0.5 mm bilateral to the medial line of spinal cord (1 μL per side), and in lesioned animals FG (2 μL) was injected into the injury. After 14 days, the cortices were fixed for 2 hours in 4% paraformaldehyde (PFA), embedded in OCT compound and stored frozen. Sagittal sections (12 μm) were cut and 4 sequential slides containing 2 sections from lateral 3.4-3.9 mm were taken for analysis (see, e.g., Paxinos and Watson, 2002).
Immunohistochemistry was carried out using anti-rabbit phospho-Akt (Cell Signalling technology, dilution of 1:100). Secondary antibody used was anti-rabbit Cy3 conjugated (Jackson, used at 1:1000). Images were captured at 100× magnification using a Roperscientific digital camera.
The behavioural tests were carried out as previously described (see, e.g., Bradbury et al., 2002). Rats (n=6 per treatment group) were first trained for two weeks before surgery to perform grid walk and beam walk; they were then tested by an observer blinded to the experimental treatment once a week for five weeks after lesion.

[4] = i.c.v. 180 ng/kg/day for 14 days

COc1ccc(-c2ccc3cc(C(=O)O)ccc3c2)cc1C1(C)CCCCC1 [CD2019, 6-(4-methoxy-3-(1-methylcyclohexyl)phenyl)-2-naphthalenecarboxylic acid]
Axon growth from cultured adult cortex of treated animals (cortical explants): did grow
Phospho AKT in the injured CST neurons [1]: induced
Behavioural test (sticky tape) [2]: performed as well as non-lesioned animals
Neurite outgrowth (cerebellar neurons): causes the outgrowth of neurites
Behavioural tests (grid and beam task) ([3]; after 5 weeks): performed as well as non-lesioned animals
BDA-labelled CST axons crossing the lesion site ([3]; after 5 weeks, vs vehicle (no axons across)): many axons were observed crossing the injury site
Time to functional recovery, beam task [3, 4]: 2 weeks post lesion
Time to functional recovery, grid task [3, 4]: 4 weeks post lesion
RARβ2 expression in the CST neuronal cell bodies ([3]; lateral ventricle for 2 weeks): upregulation of RARβ2
